# Source: US20260198495A1, “BINARY INSECTICIDE COMPOSITION AND USE THEREOF” (SHENYANG SINOCHEM AGROCHEMICALS R & D CO., LTD., priority 2022, published 2026)
# Legend:
# Assay type in all cases: in vivo
# [1] = test system: 3rd-instar larvae of Pyrausta nubilalis Hubern; test: Joint toxicity of I-72 + metaflumizone, artificial diet-pesticide film, Example 2, Table 2; details: Ostrinia nubilalis, 72 h, A = compound I-72, B = metaflumizone, read-out: LC50
# Method: Test subject: 3rd-instar larvae of Pyrausta nubilalis Hubern, a sensitive strain reared indoors.
# Experimental method: the artificial diet-pesticide film method was adopted. A standard clean 24-well culture plate was selected. 1 ml of artificial diet was added to each well. After the diet cooled and solidified, a quantitative amount of a pesticide solution was added to the culture plate using a continuous sampler, and then it was air-dried naturally in the shade. The standard test insects were introduced, with 1 insect in each well, a total of 48 insects. The treated test insects were placed in an observation room under certain conditions. The reaction of the test insects was regularly observed, and the number of dead and live insects was investigated 72 h later.
# The test conditions, the preparation method of the pesticide solution, and the evaluation method (Sun Y-P) for the joint action type of the mixture were the same as those in Example 1.
# [2] = test system: Aphis gossypii Glover nymphs; test: Joint toxicity of I-72 + organophosphorus insecticides, cotton leaf spraying, Example 17, Table 17; details: nymphs, cotton leaf spraying, 48 h, A = compound I-72, B = diazinon, read-out: LC50
# Method: Test target: Aphis gossypii Glover nymphs, a sensitive strain reared indoors.
# (§1) Preparation of the pesticide solution: according to different test requirements, the test samples were accurately weighed respectively with an electronic analytical balance. The technical pesticides were dissolved in acetone, and then diluted with 0.1% Tween 80 water into a series of pesticide solutions with a certain concentration gradient according to the experimental design dosage.
# Experimental method: first, cotton leaves with uniform and consistent Aphis gossypii were selected, with about 20 insects on each leaf. Then, they were evenly sprayed with the pesticide solution in the order from low dosage to high dosage according to the experimental design, with 1.5 mL for each leaf and 3 replicates for each treatment. In addition, a blank control was set up.
# The treated test materials were placed in an observation room, and the temperature, humidity and illumination of the observation room could be adjusted as needed. The number of dead and live insects was investigated 48 hours later. The corrected mortality rate was calculated using the Abbott's formula, and statistical analysis was performed with the DPS data processing software to obtain the toxicity regression equation, LC50 value and 95% confidence limit of each single test pesticide and each mixture of different ratios. Then, the co-toxicity coefficient of each ratio was calculated using the Sun Y-P method to evaluate the mixing effect (the same as in Example 1).
# Cnaphalocrocis medinalis = test: Field efficacy trial of I-72 and Bacillus thuringiensis on rice, Example 86, Table 86; details: 20 days after application
# Method: This trial was arranged in the suburban area of Jurong City, Jiangsu Province. The conventional spraying method was adopted in the trial. The investigation method was to take samples at 5 points, and a total of 25 clusters of rice were investigated. The investigation was performed 20 days after the pesticide application. By comparing with the leaf rolling rate in the control plot, the relative control efficacy was calculated. The amount of water used per mu was 45 L.
# The test pesticides were as follows: A: 8000 IU/μL Bacillus thuringiensis suspension (produced by Qingdao Audis Biotechnology Co., Ltd. of Shandong), and B: compound I-72 (dissolved in acetone, 0.1% Tween 80 was added, and a 10% stock solution was prepared for use).
# [formula] [formula] • in the formula, CK is the leaf rolling rate in the blank control plot after the pesticide application
# [3] = test system: 3rd-instar larvae of Ostrinia furnacalis Guenee; test: Joint toxicity of I-72 + pymetrozine, Example 79, Table 79; details: A = compound I-72, B = pymetrozine, corn stem dipping, 72 hours, read-out: LC50
# Method: Test target: 3rd-instar larvae of Ostrinia furnacalis Guenee.
# as §1
# Experimental method: first, tender corn stems were selected and dipped in the prepared pesticide solution for 10 s in the order from low dosage to high dosage according to the experimental design. After natural air-drying in the shade, they were placed in a 9-cm-diameter Petri dish with filter paper, and uniform and healthy test insects were introduced, with 10 insects for each treatment and 3 replicates for each treatment. In addition, a blank control was set up.
# (§2) The treated test materials were placed in an observation room, and the temperature, humidity and illumination of the observation room could be adjusted as needed. The number of dead and live insects was investigated 72 hours later. […] Then, the co-toxicity coefficient of each ratio was calculated using the Sun Y-P method to evaluate the mixing effect (the same as in Example 1).
# [4] = test system: 2nd-instar nymphs of Frankliniella occidentalis Pergande; test: Joint toxicity of I-72 + spinetoram, leaf spraying, Example 11, Table 11; details: Frankliniella occidentalis, kidney bean leaf spraying, 48 h, A = compound I-72, B = spinetoram, read-out: LC50
# From the text: Test subject: 2nd-instar nymphs of Frankliniella occidentalis Pergande, a sensitive strain reared indoors.
# Experimental method: the spraying method was adopted. The kidney bean leaves cultivated in the greenhouse were selected, and the petioles were wrapped with moist degreased cotton and sealing film. They were evenly sprayed with the pesticide solution in the order from low dosage to high dosage according to the experimental design, placed in a 6-cm-diameter Petri dish with filter paper. After natural air-drying in the shade, the test insects were introduced, with 20 insects for each treatment and 3 replicates. In addition, a blank control was set up. The number of dead and live insects was investigated 48 hours later. The corrected mortality rate was calculated using the Abbott's formula, and the DPS data processing software was used for statistical analysis to calculate the toxicities (LC50 values) of the single test pesticides and the mixtures under the test ratios.
# The test conditions, the preparation of the pesticide solution and the evaluation method were the same as those in Example 1.
# [5] = test system: Nilaparvata lugens (Stal) nymphs; test: Joint toxicity of I-72 + imidacloprid, Example 70, Table 70; details: A = compound I-72, B = imidacloprid, potted-seedling spraying, 72 hours, read-out: LC50
# Method: Test target: Nilaparvata lugens (Stal) nymphs, a sensitive strain reared indoors.
# as §1
# Experimental method: the activity of the mixture against the Nilaparvata lugens (Stal) nymphs was determined by adopting the potted-seedling spraying method. First, rice seedlings were planted in culture pots. Uniform spraying was performed with the pesticide solution in the order from low dosage to high dosage according to the experimental design, with 2 mL for each seedling. Then, Nilaparvata lugens nymphs of uniform size were transferred onto the rice seedlings, with 3 replicates for each treatment. In addition, a blank control was set up.
# as §2
compound,measurement,setting,value
CN(C(=O)c1ccc2c(c1)OC(F)(F)O2)c1cccc(C(=O)Nc2c(Br)cc(C(F)(C(F)(F)F)C(F)(F)F)cc2OC(F)F)c1F [Compound I-72],LC50,[1],0.67 µg/mL
same,LC50,[2],2.83 µg/mL
same,Control efficacy,Cnaphalocrocis medinalis; dose 9 ml per mu,79.6%
same,Leaf rolling rate,Cnaphalocrocis medinalis; dose 9 ml per mu,8.6%
same,Control efficacy,Cnaphalocrocis medinalis; dose 11.25 ml per mu,85.0%
same,Leaf rolling rate,Cnaphalocrocis medinalis; dose 11.25 ml per mu,6.3%
same,Control efficacy,Cnaphalocrocis medinalis; dose 13.5 ml per mu,86.8%
same,Leaf rolling rate,Cnaphalocrocis medinalis; dose 13.5 ml per mu,5.6%
same,LC50,[3],0.801 µg/mL
same,LC50,[4],1.94 µg/mL
same,LC50,[5],243 µg/mL
